The test system of series [1] is histone H2B Tyr37-phopshorylation (pY37-H2B). In words: WEE1 epigenetic activity in cells: pY37-H2B immunoprecipitation/immunoblot. The series is classed as cell-based, human. Conditions: LNCaP cells. The source says:
FIGS. 2A-2B show identification of 3 distinct types of inhibitors. […] In addition, the lysates were also subjected to by immunoblotting with pY15-Cdc2 or actin antibodies (middle and bottom panels). […] The number vehicle treated cells were used as control and percent of surviving cells were plotted.
(§1) FIGS. 4A-4B show structures of ‘hits’ identified in WEE1 epigenetic inhibitor screen. […] The reaction mix was then subjected to immunoprecipitated with WEE1 antibodies, followed by immunoblotting with pTyr antibodies. […] In addition, the lysates were also subjected to immunoblotting with actin antibodies (bottom panel).
FIGS. 7A-7C show identification of WEIN-159 as a potent WEE1 epigenetic inhibitor. […] In addition, lysates were immunoprecipitated with pY37-H2B antibodies, followed by immunoblotting with H2B antibodies (middle panel). […] The lysates were also subjected to immunoblotting with pY15-Cdc2 antibodies and were immunoprecipitated with pY37-H2B antibodies, followed by immunoblotting with H2B antibodies (middle panels). In addition, the lysates were also subjected to immunoblotting with H2B antibodies (bottom panel). […] The lysates were also subjected to immunoblotting with pY15-Cdc2 antibodies and were immunoprecipitated with pY37-H2B antibodies, followed by immunoblotting with H2B antibodies (middle panels). In addition, the lysates were also subjected to immunoblotting with actin antibodies (bottom panel).
Identification of compounds with WEE1 epigenetic inhibitory role: 14 ‘hits’ that were identified in the screen are shown in FIG. 1. These compounds were further tested for their ability to inhibit WEE1 epigenetic activity. Prostate cancer derived LNCaP cells were treated with 3 uM of compounds for 48 hours. Cells were harvested, lysates were prepared, and WEE1 epigenetic activity was detected by determining histone H2B Tyr37-phopshorylation (pY37-H2B). Lysates were also assessed for WEE1 cell cycle inhibitory activity by determining Cdc2 Tyr15-phosphorylation (pY15-Cdc2). […] These are named as ‘Cell Cycle’ inhibitors. […] These compounds are the ‘Epigenetic’ inhibitors.
A general note: In western blotting, separated proteins are transferred to a membrane and probed.

Series [2] has as its system IDH2 mRNA in melanoma cell line WM66. In words: IDH2 mRNA qRT-PCR in WM66 cells. Type of series: cell-based. Particulars: 10 uM, 16 hr. Here is the method: WM66 cells (FIG. 5A) or primary melanocytes (FIG. 5B) were treated with vehicle or compounds (10 uM) for 16 hr. Total RNA was isolated followed by qRT-PCR with IDH2 and actin primers. FIG. 5C indicated cells were treated with vehicle or compounds (10 uM) for 16 hr. Total genomic DNA was isolated, slot-blotted onto a nitrocellulose membrane, followed by blotting with 5-hmC antibodies (top panels). Blots were also stained with methylene blue, to determine equal loading of DNA (bottom panel).
Identification of 55152 (18-B3) scaffold as a WEE1 epigenetic inhibitor: Two major hits, 367416 (16-G9) and 55152 (18-B3) were taken up for further characterization. […] Accordingly, melanoma cell line WM66 and primary melanocytes were treated with inhibitors and IDH2 mRNA levels were measure by real time PCR.
(In general: Real-time PCR tracks product formation cycle by cycle.)

In series [3] the test system is Cdc2 Tyr15-phosphorylation (pY15-Cdc2). In words: WEE1 cell cycle inhibitory activity in cells: pY15-Cdc2 immunoblot. Type of series: cell-based, human. Particulars: LNCaP cells, 3 uM, 48 hours (FIG. 2A). The source says: FIGS. 2A-2B show identification of 3 distinct types of inhibitors. […] In addition, the lysates were also subjected to by immunoblotting with […]-Cdc2 or actin antibodies (middle and bottom panels). […] The number vehicle treated cells were used as control and percent of surviving cells were plotted. […] In addition, the lysates were also subjected to immunoblotting with actin antibodies (bottom panel). Identification of compounds with WEE1 epigenetic inhibitory role: 14 'hits' that were identified in the screen are shown in FIG. 1. These compounds were further tested for their ability to inhibit WEE1 epigenetic activity. Prostate cancer derived LNCaP cells were treated with 3 uM of compounds for 48 hours. […] Lysates were also assessed for WEE1 cell cycle inhibitory activity by determining Cdc2 Tyr15-phosphorylation ([…]-Cdc2). […] These are named as 'Cell Cycle' inhibitors. […] These compounds are the 'Epigenetic' inhibitors.

Series [4] can be described thus: Solubility. Type of series: physicochemical. The method, then: (§2) ADME studies with 55152 (18-B3) and 367416 (16-G9): The solubility, microsome stability and plasma stability of these two compounds were also determined (Table 2).
Series [5] is described as follows: Plasma Stability, Human. Type of series: in vitro ADME. Here is the method: as §2
Series [6] deals with T1, full length human WEE1 kinase (Homo sapiens, UniProt P30291). In words: In vitro kinase assay, purified full length WEE1, pTyr immunoblot. Type of series: biochemical. More on the design: a full length WEE1 kinase protein was incubated with the compounds. Particulars: purified full length WEE1, 100 nM (FIG. 3A, 4A). Here is the method: The reaction mix was then subjected to immunoprecipitated with WEE1 antibodies, followed by immunoblotting with pTyr antibodies (top panel). As a control, purified ACK1 protein was incubated in the reaction buffer containing ATP, in presence of 100 nM epigenetic inhibitors. The reaction mix was then subjected to immunoprecipitated with ACK1 antibodies, followed by immunoblotting with pTyr antibodies (bottom panel). […] In addition, the lysates were also subjected to immunoblotting with actin antibodies (bottom panel). […] In addition, the lysates were also subjected to immunoblotting with actin antibodies (bottom panel).
T1 sequence (P30291 whole entry): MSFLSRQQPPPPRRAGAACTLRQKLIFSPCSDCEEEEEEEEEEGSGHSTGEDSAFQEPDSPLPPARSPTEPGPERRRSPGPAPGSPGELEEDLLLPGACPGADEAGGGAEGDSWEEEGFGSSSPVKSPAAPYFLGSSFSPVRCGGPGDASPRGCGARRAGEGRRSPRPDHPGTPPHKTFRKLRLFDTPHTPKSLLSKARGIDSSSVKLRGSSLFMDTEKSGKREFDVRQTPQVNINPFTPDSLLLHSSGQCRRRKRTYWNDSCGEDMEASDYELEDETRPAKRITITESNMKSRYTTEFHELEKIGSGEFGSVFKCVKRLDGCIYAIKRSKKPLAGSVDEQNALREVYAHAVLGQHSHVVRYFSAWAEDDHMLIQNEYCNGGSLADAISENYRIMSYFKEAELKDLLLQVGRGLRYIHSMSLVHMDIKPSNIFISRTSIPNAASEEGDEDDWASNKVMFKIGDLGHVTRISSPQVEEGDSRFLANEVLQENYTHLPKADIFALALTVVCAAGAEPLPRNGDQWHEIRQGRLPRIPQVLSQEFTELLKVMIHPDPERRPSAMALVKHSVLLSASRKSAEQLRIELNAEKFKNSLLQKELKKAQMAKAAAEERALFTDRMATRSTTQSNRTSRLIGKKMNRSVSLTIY
as §1
To determine direct binding of these compounds causing WEE1 inhibition, a full length WEE1 kinase protein was incubated with the compounds. […] As a control, purified ACK1 kinase was also incubated with these compounds, none of these compounds were able to inhibit ACK1 kinase activity. These inhibitors were further validated by assessing their ability to suppress endogenous WEEE activity; LNCaP cells were treated with 10 μM of these compounds overnight.

Series [7] is described as follows: Plasma Stability, Mouse. Type of series: in vitro ADME. The method, then:
as §2

Series [8] deals with T1, full length human WEE1 kinase. In words: ELISA based assay: WEE1 phosphorylation of biotinylated H2B peptide spanning Tyr37. Type of series: biochemical. Further details: A full length human WEE1 kinase that was enzymatically active was purified from insect cell. Conditions: Table 1; several values in a cell are repeat determinations. The source says:
Designing of a Novel inhibitor Screening Platform: […] A full length human WEE1 kinase that was enzymatically active was purified from insect cell. […] NCI diversity set compound library ( 1600 compounds) was used for the screening.
A general note: An ELISA detects its analyte on a solid surface through an enzyme-linked reagent.

For series [9], the target named is T2, Wee2 KD (Homo sapiens, UniProt P0C1S8).
T2 construct: WEE1 & WEE2 (as control) kinase domains from mammalian cells (HEK293T cells) were purified
T2 sequence (P0C1S8 212-486): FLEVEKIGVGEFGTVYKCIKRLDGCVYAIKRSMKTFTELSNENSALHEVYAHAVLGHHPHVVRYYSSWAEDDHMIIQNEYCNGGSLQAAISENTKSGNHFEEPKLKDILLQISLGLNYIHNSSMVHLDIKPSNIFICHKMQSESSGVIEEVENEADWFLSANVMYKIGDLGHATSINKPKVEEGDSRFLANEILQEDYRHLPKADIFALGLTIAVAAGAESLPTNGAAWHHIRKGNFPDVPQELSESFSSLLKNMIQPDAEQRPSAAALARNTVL
Kind of series: Differential Scanning Fluorimetry (DSF), Wee2 KD. Particulars: kinase domain purified from HEK293T cells. Type of series: binding. The method, then: Binding study of WEE1 epigenetic inhibitors: To identify the precise binding region/domain of WEE1 epigenetic inhibitors, WEE1 & WEE2 (as control) kinase domains from mammalian cells (HEK293T cells) were purified. The binding of inhibitors was assessed using Differential Scanning Fluorimetry (DSF).

Values after ≈ are worked out from the molar mass of the structure shown. Values joined by “and” are separate entries in the source; they are usually repeats but may differ in a detail not shown here. Equal entries are not always repeated. Where two headings read alike, the source gives them in different places.

For `Nc1ccc(NC(=O)c2ccc(C(=O)Nc3ccc(N)cc3)cc2)cc1` [SG5-061, N^1,N^4-bis(4-aminophenyl)terephthalamide], the “H2B Tyr37-phosphorylation (pY37-H2B)” value in [1] (3 uM, 48 hours (FIG. 2A)) is “specifically suppressed H2B Tyr37-phosphotylation”. Also, the “H2B Tyr37-phosphorylation” value in series [1] (10 μM, 12 hours (FIG. 4B)) was “complete loss of H2B Tyr37-phosphorylation”. Moreover, the “IDH2 mRNA levels” value in series [2] is “Significant increase in IDH2 mRNA levels”. The “Cdc2 Tyr15-phosphorylation (pY15-Cdc2)” value in [3] is given as “did not affect Cdc2 Tyr15-phosphotylation”. The solubility in series [4] (aqueous buffer, pH 5.0, read-out: Solubility (ug/mL) pH 5.0) amounted to 0.13 µg/mL (≈ 0.375 µM); in series [4] (pH 6.2, aqueous buffer, read-out: Solubility (ug/mL) pH 6.2), 0.22 µg/mL (≈ 0.635 µM); in series [4] (pH 7.4, aqueous buffer, read-out: Solubility (ug/mL) pH 7.4) it was 0.15 µg/mL (≈ 0.433 µM). Also, the “Plasma Stability % remaining @ 3 hrs Human” value in [5] is on record as 58.57%. For the same compound, the “WEE1 kinase activity (pTyr immunoblot)” value in series [6] (listed as 18-B3) is reported as “suppresses kinase activation better than 16-G9”; in [6] (listed as 55152 (18-B3)), “significant loss of WEE1 kinase activity”. In addition, the “Plasma Stability % remaining @ 3 hrs Mouse” value in series [7] was 50.76%. Further, in series [8], the “ELISA Inhibition (%)” value is 112% and 81% and 82% and 87% and 83% and 100% and 106%. Also, the “ΔTm for Wee2 KD (° C.)” value in series [9] came to 0.1 °C; in series [9] (listed as 55152 (18-B3)), 1.1 °C.

The values above are taken from US11987568B2, “Allosteric inhibitor of WEE1 kinase” (H. LEE MOFFITT CANCER CENTER AND RESEARCH INSTITUTE, INC., priority 2018, dated 2024).
